Experimental data as given in patent US4889860A (Nova Pharmaceutical Corporation, priority 1987, dated 1989).
Where two headings read alike, the source gives them in different places.

Experiments:
[1] = target: delta-type opioid receptor (Rattus norvegicus, UniProt P33533); assay: inhibition of specific [^3 H] DADLE binding to rat forebrain membranes
Experimental: (§1) The interaction of some of the novel compounds with mu and delta-type opioid receptors present in brain membranes was examined in vitro. […] DAGO (mu-type receptor) or [^3 H] DADLE (delta-type receptor) was determined using rat forebrain membranes. Computer assisted analysis (EBDA) was used to determine apparent Ki values for the various compounds.
(§2) Values represent the MEAN±S.E.M. of the Ki(nM) for each compound to inhibit specific binding of the indicated ligand to rat brain membranes. The values are from two-five separate experiments and were calculated according to the method of Cheng and Prusoff [Biochem. Pharmacol. 1973, 22, 3099-3108] together with the EBDA Program. Numbers in parentheses are the mean Hill coefficients for each compound to inhibit ligand binding.
as §2, with “two.div.seven” for “two-five”, “Prusoff” for “Prusoff [Biochem. Pharmacol. 1973, 22, 3099-3108]”, “program.” for “Program.”, “binding. N.D.=not determined” for “binding.”
(§3) The interaction of some of the novel compounds with mu, delta and kappa - type opioid receptors present in brain membranes was examined in vitro. […] DAGO (mu-type receptor), or [^3 H] DADLE (Delta-type receptor) using rat forebrain membranes and [^3 H] EKC (kappa-type receptor) using guiniea pig cerebellum membrane was determined. Computer assisted analysis (EBDA) was used to determine apparent Ki values for the various compounds.
(§4) The values represent the MEAN±S.E.M. of the Ki(nM) for each compound to inhibit specific binding of the indicated ligand. Each value represents the mean of three individual experiments performed on separate occasions.

mu-type opioid receptor = target: T1, mu-type opioid receptor (Rattus norvegicus, UniProt P33535); assay: inhibition of specific [^3 H] DAGO binding to rat forebrain membranes
T1 construct: using rat forebrain membranes; from tissue; host or cells: rat forebrain membranes
T1 sequence (P33535 whole entry): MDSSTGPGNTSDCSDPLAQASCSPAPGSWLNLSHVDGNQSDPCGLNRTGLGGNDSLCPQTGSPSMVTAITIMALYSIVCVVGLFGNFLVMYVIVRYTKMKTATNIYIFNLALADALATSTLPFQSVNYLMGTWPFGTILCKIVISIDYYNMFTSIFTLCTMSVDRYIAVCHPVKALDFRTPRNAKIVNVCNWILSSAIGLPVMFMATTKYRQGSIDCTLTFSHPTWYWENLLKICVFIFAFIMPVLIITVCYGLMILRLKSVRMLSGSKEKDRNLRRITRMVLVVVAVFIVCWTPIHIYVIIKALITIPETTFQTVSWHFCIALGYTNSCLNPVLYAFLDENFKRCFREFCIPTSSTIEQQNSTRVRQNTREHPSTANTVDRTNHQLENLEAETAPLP
Experimental: as §1, §2
as §2, with “two.div.seven” for “two-five”, “Prusoff” for “Prusoff [Biochem. Pharmacol. 1973, 22, 3099-3108]”, “program.” for “Program.”, “binding. N.D.=not determined” for “binding.”
as §3, §4

[2] = target: T2, kappa-type opioid receptor (Cavia porcellus, UniProt P41144); assay: inhibition of specific [^3 H] EKC binding to guinea pig cerebellum membrane
T2 construct: using guiniea pig cerebellum membrane; from tissue; host or cells: guinea pig cerebellum membranes
T2 sequence (P41144 whole entry): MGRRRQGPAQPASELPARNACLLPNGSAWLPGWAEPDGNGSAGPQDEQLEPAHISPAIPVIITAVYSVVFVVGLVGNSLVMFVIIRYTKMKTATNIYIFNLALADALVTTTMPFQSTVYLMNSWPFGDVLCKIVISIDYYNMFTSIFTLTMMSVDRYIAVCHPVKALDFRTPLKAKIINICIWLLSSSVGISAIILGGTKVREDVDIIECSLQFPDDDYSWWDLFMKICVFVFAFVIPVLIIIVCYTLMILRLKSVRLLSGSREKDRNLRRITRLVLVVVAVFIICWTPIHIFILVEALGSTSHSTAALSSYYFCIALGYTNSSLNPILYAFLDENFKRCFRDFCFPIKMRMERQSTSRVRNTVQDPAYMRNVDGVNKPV
Experimental: as §3, §4

[3] = tested on: oxymorphonazine (OMZ)-induced analgesia; assay: antagonism of oxymorphonazine (OMZ)-induced analgesia (tail flick) in rats; format: in vivo, rat; conditions: S.C.; for ED50 / ED100: Rattus norvegicus, sc, Table 8; for ED50: read-out: ED 50, oxymorphonazine antagonism; for ED100: read-out: ED 100, oxymorphonazine antagonism; for Percent Antagonism at 1 Hr / Percent Antagonism at 1.5 Hr / Percent Antagonism at 2 Hr / Percent Antagonism at 3 Hr / Percent Antagonism at 4 Hr / Percent Antagonism at 6 Hr / Percent Antagonism at 8 Hr: dose tested (mg/kg): Naltrexone 0.5, Nalmefene 1.0, XI 10.0, XII 2.5, XIII 0.5, XIV 5.0
Experimental: The compound of Example XII was evaluated for its potency and duration in the antagonism of oxymorphonazine (OMZ)-induced analgesia. […] Data represent the mean SEM of 4-5 animals per group.
(Cowan A. Trendsin Pharmacology Science, 7:69-72, 1986) With this test the intracerebroventricular administration of bombesin produces a characteristic scratching response.

[4] = read-out: Ki, inhibition of specific [^3 H] DADLE binding, Tables 1 and 2, rat brain membranes, MEAN±S.E.M.
[5] = Ki, inhibition of specific [^3 H] DAGO binding, Tables 1 and 2, rat brain membranes, MEAN±S.E.M.
[6] = read-out: (Ki) nM, δ receptor (Rat Forebrain), Table 6, [^3 H] DADLE, mean of three experiments
[7] = (Ki) nM, μ receptor (Rat Forebrain), Table 6, [^3 H] DAGO, mean of three experiments

Sequence of delta-type opioid receptor (P33533 whole entry): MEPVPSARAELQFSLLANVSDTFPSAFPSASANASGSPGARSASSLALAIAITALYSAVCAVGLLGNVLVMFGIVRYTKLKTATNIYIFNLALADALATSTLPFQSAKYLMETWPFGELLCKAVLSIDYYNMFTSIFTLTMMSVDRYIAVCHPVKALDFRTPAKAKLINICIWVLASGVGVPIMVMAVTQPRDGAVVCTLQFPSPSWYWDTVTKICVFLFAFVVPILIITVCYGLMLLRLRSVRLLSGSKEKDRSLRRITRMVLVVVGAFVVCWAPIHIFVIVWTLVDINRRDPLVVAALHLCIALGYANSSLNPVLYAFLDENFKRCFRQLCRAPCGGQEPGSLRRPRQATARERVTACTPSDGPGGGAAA

CON=C1CC[C@@]2(O)[C@H]3Cc4ccc(O)c5c4[C@@]2(CCN3C)[C@H]1O5 [Example II, 6-Methyloximino-17-methyl-4,5 α-epoxy-3, 14-dihydroxymorphinan]
Ki [1, 4]: 3.44 ± 0.83 nM
Ki (mu-type opioid receptor; [5]): 0.97 ± 0.1 nM

ON=C1CC[C@@]2(O)[C@H]3Cc4ccc(O)c5c4[C@@]2(CCN3CC2CC2)[C@H]1O5 [Example IX, 6-Oximino-17-cyclopropylmethyl-4,5 α-epoxy-3, 14-dihydroxymorphinan]
Ki [2]: 2.05 nM
Ki [1, 6]: 1.64 nM
Ki (mu-type opioid receptor; [7]): 0.24 nM
mean Hill coefficient, [^3 H] DAGO binding (mu-type opioid receptor; Tables 1 and 2, numbers in parentheses): 0.81
Ki (mu-type opioid receptor; Tables 1 and 2, rat brain membranes, MEAN±S.E.M., read-out: Ki, inhibition of specific [^3 H] DAGO binding): 0.24 ± 0.03 nM
fold more potent to inhibit specific [^3 H]DAGO binding (mu-type opioid receptor; than compound of Example X or XI, or naltrexone): 3 fold

CON=C1CC[C@@]2(O)[C@H]3Cc4ccc(O)c5c4[C@@]2(CCN3CC2CC2)[C@H]1O5 [Example X, 6-Methyloximino-17-cyclopropylmethyl-4,5 α-epoxy-3, 14-dihydroxymorphinan]
Ki [1, 4]: 1.8 ± 0.22 nM
Ki (mu-type opioid receptor; [5]): 0.66 ± 0.06 nM

Oc1ccc2c3c1O[C@H]1C(=NOCc4ccccc4)CC[C@@]4(O)[C@@H](C2)N(CC2CC2)CC[C@]314 [Example XI, 6-Benzyloximino-17-cyclopropylmethyl-4, 5 α-epoxy-3, 14-dihydroxymorphinan]
Ki [1, 6]: 0.87 nM
Ki [1, 4]: 0.7 ± 0.22 nM
ED50 [3]: 1.2 mg/kg
ED100 [3]: 13 mg/kg
Percent Antagonism at 1 Hr [3]: 72%
Percent Antagonism at 1.5 Hr [3]: 86%
Percent Antagonism at 2 Hr [3]: 91%
Percent Antagonism at 3 Hr [3]: 93%
Percent Antagonism at 4 Hr [3]: 103%
Percent Antagonism at 6 Hr [3]: 122%
Percent Antagonism at 8 Hr [3]: 64%
Ki (mu-type opioid receptor; [7]): 0.55 nM
Ki (mu-type opioid receptor; [5]): 0.55 ± 0.12 nM

Cc1ccc(ON=C2CC[C@@]3(O)[C@H]4Cc5ccc(O)c6c5[C@@]3(CCN4CC3CC3)[C@H]2O6)cc1C [Example XIII, 6-[3,4-dimethylphenyl]oximino-17-cyclopropylmethyl-4,5α-epoxy-3,14-dihydroxymorphinan]
Ki [1, 6]: 2.69 nM
ED50 [3]: 0.09 mg/kg
ED100 [3]: 0.74 mg/kg
Percent Antagonism at 1 Hr [3]: 77%
Percent Antagonism at 1.5 Hr [3]: 72%
Percent Antagonism at 2 Hr [3]: 67%
Percent Antagonism at 3 Hr [3]: 79%
Percent Antagonism at 4 Hr [3]: 72%
Percent Antagonism at 6 Hr [3]: 71%
Percent Antagonism at 8 Hr [3]: 97%
Ki (mu-type opioid receptor; [7]): 1.64 nM

Oc1ccc2c3c1O[C@H]1C(=NOC4CCCc5ccccc54)CC[C@@]4(O)[C@@H](C2)N(CC2CC2)CC[C@]314 (stereo partly drawn) [Example XIV, 6-[1,2,3,4-tetrahydronaphth-1-yl]oximino-17-cyclopropylmethyl-4,5 α-epoxy-3,14-dihydroxymorphinan]
Ki [2]: 4.66 nM
Ki [1, 6]: 0.6 nM
ED50 [3]: 0.02 mg/kg
ED100 [3]: 6.73 mg/kg
Percent Antagonism at 1 Hr [3]: 80%
Percent Antagonism at 1.5 Hr [3]: 84%
Percent Antagonism at 2 Hr [3]: 82%
Percent Antagonism at 3 Hr [3]: 84%
Percent Antagonism at 4 Hr [3]: 83%
Percent Antagonism at 6 Hr [3]: 41%
Percent Antagonism at 8 Hr [3]: 20%
Ki (mu-type opioid receptor; [7]): 2.76 nM

Cc1cccc(ON=C2CC[C@@]3(O)[C@H]4Cc5ccc(O)c6c5[C@@]3(CCN4CC3CC3)[C@H]2O6)c1C [Example XV, 6-[2,3-dimethylphenyl]oximino-17-cyclopropylmethyl-4,5 α-epoxy-3,14-dihydroxymorphinan]
Ki [1, 6]: 1.23 nM
Ki (mu-type opioid receptor; [7]): 1.19 nM

Oc1ccc2c3c1O[C@H]1C(=NOc4ccc(C(F)(F)F)cc4)CC[C@@]4(O)[C@@H](C2)N(CC2CC2)CC[C@]314 [Example XVII, 6-[4-trifluoromethylphenyl]oximino-17-cyclopropylmethyl-4,5 α-epoxy-3,14-dihydroxymorphinan]
Ki [1, 6]: 34.4 nM
Ki (mu-type opioid receptor; [7]): 26.4 nM

CC(C)(C)ON=C1CC[C@@]2(O)[C@H]3Cc4ccc(O)c5c4[C@@]2(CCN3CC2CC2)[C@H]1O5 [Example XVI]
Ki [2]: 7.39 nM
Ki [1, 6]: 0.41 nM
Ki (mu-type opioid receptor; [7]): 1.01 nM
